The record followed here is ChEMBL document CHEMBL1201862, “PubChem BioAssay data set” (2004).

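A five-concentration, 48-hour dose response in 96-well plates underlies each endpoint, interpolated linearly between surrounding concentrations. Here, GI50 denotes the concentration required for 50% inhibition of growth.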 Activity calls are given as the source filed them. Cut-off read from the data, not from the text of the source: active = GI50 up to about 1.1 µM and inactive = higher.

Among the test systems are A498; A549; CCRF-CEM; HL-60; HOP-62; K562; KM12; NCI-H23; OVCAR-3; OVCAR-5; RPMI-8226; RXF 393; SF-295; SK-MEL-28; SK-OV-3; SW-620; UACC-257; HCT-116; SR.
What all share (experiment): NCI tumour cell line growth inhibition, 48 h

In the case of `COc1ccc2c3c1C(=O)CCCC3CO2` (configuration not stated), the GI50 in the test on A498, with A549, in the test on CCRF-CEM, in the test with HL-60, in the test on HOP-62 and with K562 was > 100 µM (inactive) in each case. For the same molecule, the GI50 in the test with KM12, in the test on NCI-H23, with OVCAR-3, in the test with OVCAR-5, in the test on RPMI-8226 and in the test on RXF 393 was > 100 µM (inactive) in each case. Besides, the GI50 in the test with SF-295, in the test with SK-MEL-28, in the test with SK-OV-3, in the test on SW-620 and in the test on UACC-257 was > 100 µM (inactive) each time.
Consider `Cc1ccc(NC(=O)CC2C(=O)Nc3ccccc3S2(=O)=O)c(C)c1` (configuration not stated), for which the GI50 was 14.8 µM (inactive) in the test on A498; 18.7 µM (inactive) in the test with A549; 16.4 µM (inactive) in the test with CCRF-CEM; 12.2 µM (inactive) with HCT-116; 2.77 µM (inactive) in the test on HL-60; 4.66 µM (inactive) in the test with K562. Moreover, the GI50 is 17.8 µM (inactive) with NCI-H23; 14.1 µM (inactive) with OVCAR-3; 24.7 µM (inactive) in the test with OVCAR-5; 15.2 µM (inactive) in the test on RPMI-8226; 17 µM (inactive) with RXF 393; 25.5 µM (inactive) in the test on SF-295. The GI50 was 17 µM (inactive) in the test on SK-MEL-28, 1.8 µM (inactive) in the test on SR, 5.21 µM (inactive) in the test on SW-620 and 21.6 µM (inactive) in the test on UACC-257.
Turning to `O=C1c2ccccc2C(=O)C12CCc1ccccc12`, the GI50 with A549 was > 100 µM (inactive); with CCRF-CEM, > 100 µM (inactive); in the test on HL-60, 23.6 µM (inactive); in the test on HOP-62, > 100 µM (inactive); with K562, 83.4 µM (inactive); in the test with NCI-H23, > 100 µM (inactive). The GI50 in the test with OVCAR-3, in the test on RXF 393, in the test on SF-295, in the test on SK-MEL-28, in the test with SK-OV-3 and in the test with SW-620 was > 100 µM (inactive) throughout.
On to `O=c1ncccn1C1C=C(CO)C(O)C1O` (configuration not stated), for which the GI50 in the test with A498, in the test on A549, with CCRF-CEM, in the test with HL-60, in the test with HOP-62 and in the test with K562 was > 50 µM (inactive) in each case. Further, the GI50 with KM12, with NCI-H23, with OVCAR-3, in the test with OVCAR-5, in the test on RPMI-8226 and with SF-295 was > 50 µM (inactive) in each case. In addition, the GI50 in the test on SK-MEL-28, in the test with SK-OV-3, with SW-620 and in the test on UACC-257 was > 50 µM (inactive) throughout.
In the case of `CCN(CC)CCNc1ccc(/N=N/c2ccc(S(N)(=O)=O)cc2)c2ccccc12`, the GI50 in the test on A498 was 14.1 µM (inactive); with A549 it was 4.99 µM (inactive); with CCRF-CEM it was 4.51 µM (inactive); in the test with HCT-116, 3.72 µM (inactive); with HL-60, 14.5 µM (inactive); in the test with HOP-62 it was 6.73 µM (inactive). The GI50 was 3.13 µM (inactive) in the test with K562; 6.01 µM (inactive) in the test on KM12; 23.2 µM (inactive) in the test with NCI-H23; 2.43 µM (inactive) in the test with OVCAR-3; 23 µM (inactive) in the test on OVCAR-5; 3.37 µM (inactive) in the test on RPMI-8226. The GI50 is 3.61 µM (inactive) with RXF 393; 4.3 µM (inactive) in the test with SF-295; 11.5 µM (inactive) in the test with SK-MEL-28; 2.1 µM (inactive) with SR; 3.3 µM (inactive) with SW-620; 14.9 µM (inactive) in the test on UACC-257.
In the case of `CC1=C([S+]([O-])c2ccc(C)cc2)CCC2(CCCCO2)O1` (configuration not stated), the GI50 is > 100 µM (inactive) with A498; > 100 µM (inactive) with HCT-116; 23.3 µM (inactive) in the test on HL-60; > 100 µM (inactive) with HOP-62; 46.8 µM (inactive) in the test on K562; > 100 µM (inactive) in the test with KM12. Moreover, the GI50 in the test with NCI-H23 is > 100 µM (inactive); in the test with OVCAR-3 it was > 100 µM (inactive); in the test on OVCAR-5, > 100 µM (inactive); in the test on RPMI-8226, 66.5 µM (inactive); in the test with RXF 393, > 100 µM (inactive); in the test with SF-295, > 100 µM (inactive). In addition, the GI50 in the test with SK-MEL-28, in the test with SW-620 and with UACC-257 was > 100 µM (inactive) throughout.
Turning to `O=C(CSc1nnc(Cc2ccccc2)o1)Nc1ccccc1`, the GI50 in the test with A498, in the test on A549, in the test on CCRF-CEM, in the test on HCT-116, in the test on HL-60 and in the test with HOP-62 was > 100 µM (inactive) throughout. The GI50 in the test with K562, in the test on KM12, in the test on NCI-H23, in the test on OVCAR-3, with OVCAR-5 and in the test on RPMI-8226 was > 100 µM (inactive) throughout. The GI50 in the test on RXF 393, with SF-295, in the test with SK-MEL-28, in the test on SK-OV-3 and with UACC-257 was > 100 µM (inactive) in each case.
With `CC(=O)c1c2c(cc3c1CC1(C3)Cc3cc4c(c(C(C)=O)c3C1)CCC4)CCC2`, the GI50 in the test with A549 is > 100 µM (inactive); in the test with CCRF-CEM, > 100 µM (inactive); with HCT-116 it was > 100 µM (inactive); in the test on HL-60, 19.3 µM (inactive); in the test with HOP-62, > 100 µM (inactive); in the test with K562, 38 µM (inactive). The GI50 in the test with KM12, in the test on NCI-H23, in the test on OVCAR-3, in the test on OVCAR-5, in the test with RXF 393 and in the test with SF-295 was > 100 µM (inactive) throughout. Besides, the GI50 in the test on SK-MEL-28, with SR, in the test with SW-620 and in the test with UACC-257 was > 100 µM (inactive) in each case.
As to `CCOC(=O)Cc1csc(N/C=C2/C(=O)Oc3ccccc3C2=O)n1`, the GI50 with A549 is 34.2 µM (inactive); with CCRF-CEM, 26.6 µM (inactive); in the test with HCT-116 it was 27.6 µM (inactive); with HL-60, 0.083 µM (active); with HOP-62, 20.9 µM (inactive); in the test with KM12, 27.8 µM (inactive). For the same molecule, the GI50 in the test on NCI-H23 was 22.8 µM (inactive); in the test with OVCAR-3, 25.9 µM (inactive); in the test with OVCAR-5, 37.4 µM (inactive); in the test on RPMI-8226, 18.6 µM (inactive); in the test with RXF 393, 14.7 µM (inactive); in the test with SF-295 it was 20.9 µM (inactive). The GI50 in the test with SK-MEL-28 is 25.1 µM (inactive); in the test on SK-OV-3, 35.4 µM (inactive); in the test on SR, 14.3 µM (inactive); with SW-620 it was 21.6 µM (inactive); with UACC-257 it was 20.8 µM (inactive).
On to `CC1=NN(c2ccccc2)C(=O)/C1=C\c1ccc([N+](=O)[O-])cc1`, for which the GI50 in the test with A498 is 11.4 µM (inactive); with A549 it was 35.4 µM (inactive); with CCRF-CEM, 20.7 µM (inactive); with HL-60, 23.3 µM (inactive); with K562, 28.6 µM (inactive); in the test on KM12, 26.4 µM (inactive). In addition, the GI50 is 27.9 µM (inactive) in the test with NCI-H23; 24.5 µM (inactive) in the test with OVCAR-5; 23.6 µM (inactive) with RPMI-8226; 19.5 µM (inactive) with RXF 393; 31.1 µM (inactive) in the test with SF-295; 36.6 µM (inactive) in the test on SK-MEL-28. In addition, the GI50 in the test with SK-OV-3 is 24.1 µM (inactive); in the test with SW-620, 30.3 µM (inactive); in the test with UACC-257, 28.7 µM (inactive).
Turning to `COC1C2c3ccccc3C(C#N)(Cc3ccc4c(c32)OCO4)N1C(=O)c1ccccc1` (configuration not stated), the GI50 with CCRF-CEM was 25.4 µM (inactive); in the test on HCT-116 it was 37.6 µM (inactive); with HL-60 it was 8.57 µM (inactive); with HOP-62 it was 14.4 µM (inactive); with K562, 5.11 µM (inactive); in the test on KM12, 24.9 µM (inactive). Moreover, the GI50 in the test on NCI-H23 was 62.2 µM (inactive); with OVCAR-3, 42.5 µM (inactive); in the test with OVCAR-5, > 100 µM (inactive); with RPMI-8226 it was 16.3 µM (inactive); in the test on RXF 393, 16.3 µM (inactive); with SF-295, > 100 µM (inactive). Further, the GI50 in the test with SK-MEL-28 was 90.8 µM (inactive); in the test with SK-OV-3, 35.3 µM (inactive); with SR it was 14.3 µM (inactive); in the test with SW-620 it was 32.8 µM (inactive); in the test on UACC-257, 26.1 µM (inactive).
`O=S(O)CCCCCSSCCCCSSCCCCCS(=O)O`: the GI50 in the test with A498 is > 100 µM (inactive); in the test on A549, > 100 µM (inactive); with CCRF-CEM, 41.2 µM (inactive); in the test on HOP-62, > 100 µM (inactive); with K562 it was 48.1 µM (inactive); with KM12 it was > 100 µM (inactive). Besides, the GI50 with NCI-H23 is > 100 µM (inactive); with OVCAR-3, > 100 µM (inactive); in the test on OVCAR-5, > 100 µM (inactive); in the test with RPMI-8226, 97.5 µM (inactive); in the test with RXF 393, > 100 µM (inactive); with SF-295, > 100 µM (inactive). In addition, the GI50 in the test with SK-MEL-28, with SK-OV-3, in the test with SW-620 and with UACC-257 was > 100 µM (inactive) throughout.
